In the supplement of paper PMC11962398:

Key:
BI-2493 [1] = compound: T1, C[C@H]1CNCCN1c1nccc(-c2noc3c2CCC[C@@]32CCCc3sc(N)c(C#N)c32)n1 [BI-2493]; settings: 5 days
Method: (§1)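 PRISM pooled barcoded cancer cell line viability screen (Broad Institute) with BI-2493 at 8 doses in threefold dilutions from 0.00457 to 10 µmol/L, 5-day treatment; curves fitted per cell line. IC50 is undefined (placeholder) for resistant lines. AUC is capped at 1, and sensitivity is reported as 1 − AUC.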

BI-2493 [2] = compound: T1, BI-2493; test: 1 - AUC of viability dose-response curve (sensitivity) (fraction); higher = more sensitive; settings: 5 days
Method: as §1

Test System | IC50 of cell viability (BI-2493 [1]) | 1 - AUC of viability dose-response curve (BI-2493 [2])
KELLY_AUTONOMIC_GANGLIA | 4.09 µM | 0.101
KHM1B_HAEMATOPOIETIC_AND_LYMPHOID_TISSUE | 3.77 µM | 0.106
KKU055_BILIARY_TRACT | 8.47 µM | 0.156
KKU100_BILIARY_TRACT | 2.61 µM | 0.182
KKU213_BILIARY_TRACT | 4.97 µM | 0.12
KLE_ENDOMETRIUM | 4.68 µM | 0.0854
KMCH1_BILIARY_TRACT | 9.41 µM | 0.013
KMH2_HAEMATOPOIETIC_AND_LYMPHOID_TISSUE | 9.96 µM | 0.00616
KMRC1_KIDNEY | 8.1 µM | 0.0333
KMRC3_KIDNEY | 7 µM | 0.0597
KMRC20_KIDNEY | 4.73 µM | 0.185
KMS11_HAEMATOPOIETIC_AND_LYMPHOID_TISSUE | 3.13 µM | 0.272
KMS12BM_HAEMATOPOIETIC_AND_LYMPHOID_TISSUE | 3.71 µM | 0.108
KMS18_HAEMATOPOIETIC_AND_LYMPHOID_TISSUE | 5.38 µM | 0.13
KMS21BM_HAEMATOPOIETIC_AND_LYMPHOID_TISSUE | 9.51 µM | 0.0119
KMS27_HAEMATOPOIETIC_AND_LYMPHOID_TISSUE | 9 µM | 0.028
KMS28BM_HAEMATOPOIETIC_AND_LYMPHOID_TISSUE | 9.91 µM | 0.00817
KNS42_CENTRAL_NERVOUS_SYSTEM | 6.04 µM | 0.0979

Test System | IC50 of cell viability (BI-2493 [1]) | 1 - AUC of viability dose-response curve (BI-2493 [2])
KNS60_CENTRAL_NERVOUS_SYSTEM | 9.53 µM | 0.0228
KNS62_LUNG | 1.79 µM | 0.271
KNS81_CENTRAL_NERVOUS_SYSTEM | 6.64 µM | 0.0832
KON_UPPER_AERODIGESTIVE_TRACT | 3.51 µM | 0.189
KOSC2CL343_UPPER_AERODIGESTIVE_TRACT | 5.69 µM | 0.0719
KP3_PANCREAS | 6.52 µM | 0.133
KP4_PANCREAS | 4.92 µM | 0.189
KPNYN_AUTONOMIC_GANGLIA | > 10 µM | 0.144
KS1_CENTRAL_NERVOUS_SYSTEM | 7.63 µM | 0.0533
KU1919_URINARY_TRACT | 9.28 µM | 0.0267
KURAMOCHI_OVARY | > 10 µM | 0.129
KYM1_SOFT_TISSUE | 3.79 µM | 0.117
KYO1_HAEMATOPOIETIC_AND_LYMPHOID_TISSUE | 9.93 µM | 0.00435
KYSE70_OESOPHAGUS | 5.15 µM | 0.163
KYSE140_OESOPHAGUS | > 10 µM | 0.0648
KYSE150_OESOPHAGUS | 3.68 µM | 0.131
KYSE180_OESOPHAGUS | 7.63 µM | 0.0499
KYSE270_OESOPHAGUS | 5.56 µM | 0.113
